Structures can show the parent of a compound that is named as a salt. Where two headings read alike, the source gives them in different places.

Common to all, as to assay type: biochemical
One assay deals with TYK2 (Homo sapiens, UniProt P29597). The experiment in a line: TYK2 kinase inhibition (Table A1).
For assay [1], the target named is T1, human JAK3 (a.a. 781-1124) (Homo sapiens, UniProt P52333).
T1 construct: JAK3 (a.a. 781-1124); His tag (N); made in house; host or cells: insect cells (baculovirus)
The experiment in a line: In vitro JAK kinase assay (HTRF, phosphorylation of a biotinylated peptide), JAK3. The method in brief: (§1)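 Kinase activity was measured as phosphorylation of a biotinylated peptide, with ATP at 90 μM for JAK1, 30 μM for JAK2 and 3 μM for JAK3. Reactions ran 1 hr at room temperature, were stopped with EDTA plus SA-APC and Eu-Py20, and were read by HTRF after 40 minutes of antibody binding.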
(In general: In TR-FRET formats the signal depends on donor and acceptor labels being close together.)

The target in assay [2] is T2, human JAK1 (a.a. 837-1142) (Homo sapiens, UniProt P23458).
T2 construct: human JAK1 (a.a. 837-1142); His tag (N); made in house; host or cells: insect cells (baculovirus)
The experiment in a line: In vitro JAK kinase assay (HTRF, phosphorylation of a biotinylated peptide), JAK1. Conditions: read-out: JAK1 IC50. In outline: as §1

The target in assay [3] is T3, Recombinant Human Anaplastic Lymphoma Kinase (Homo sapiens, UniProt Q9UM73).
T3 construct: purchased Invitrogen, Carlsbad, Calif
The assay is described as follows: ALK HTRF kinase assay. In outline:
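IC50 was obtained from a logistic fit of signal versus log inhibitor concentration, using pre- and post-transition baselines and a Hill slope. The signal reported tyrosine phosphorylation of a biotinylated peptide by recombinant human kinase, detected as Eu-to-APC energy transfer.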

In assay [4] the target is T4, human JAK2 (a.a. 828-1132) (Homo sapiens, UniProt O60674).
T4 construct: JAK2 (a.a. 828-1132); His tag (N); made in house; host or cells: insect cells (baculovirus)
The assay is described as follows: In vitro JAK kinase assay (HTRF, phosphorylation of a biotinylated peptide), JAK2. In outline:
as §1

Setting [5] is: Table B1, cells without percent sign.
[6] abbreviates: compound at a concentration of 500 nM or 1 mM (not specified), cells shown as percentage.
The mark [7] stands for this setting: method AA1 (3 μM ATP) or AA2 (1000 μM ATP), not stated per value.
[8] abbreviates: method AA1 (90 μM ATP) or AA2 (1000 μM ATP), not stated per value.
[9] abbreviates: compound at 500 nM or 1 mM, 90 μM ATP.
Where [10] appears, read: method AA1 (30 μM ATP) or AA2 (1000 μM ATP), not stated per value.

T1 sequence (P52333 781-1124): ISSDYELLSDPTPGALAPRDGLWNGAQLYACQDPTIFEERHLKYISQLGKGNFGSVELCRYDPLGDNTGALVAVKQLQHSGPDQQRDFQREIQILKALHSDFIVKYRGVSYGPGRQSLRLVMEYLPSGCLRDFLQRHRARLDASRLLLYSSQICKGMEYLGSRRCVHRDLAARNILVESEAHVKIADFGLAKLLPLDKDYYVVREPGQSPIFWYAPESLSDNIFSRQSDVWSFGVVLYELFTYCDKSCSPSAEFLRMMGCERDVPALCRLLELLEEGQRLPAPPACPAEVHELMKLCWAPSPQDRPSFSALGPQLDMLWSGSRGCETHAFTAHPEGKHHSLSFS
T2 sequence (P23458 849-1154): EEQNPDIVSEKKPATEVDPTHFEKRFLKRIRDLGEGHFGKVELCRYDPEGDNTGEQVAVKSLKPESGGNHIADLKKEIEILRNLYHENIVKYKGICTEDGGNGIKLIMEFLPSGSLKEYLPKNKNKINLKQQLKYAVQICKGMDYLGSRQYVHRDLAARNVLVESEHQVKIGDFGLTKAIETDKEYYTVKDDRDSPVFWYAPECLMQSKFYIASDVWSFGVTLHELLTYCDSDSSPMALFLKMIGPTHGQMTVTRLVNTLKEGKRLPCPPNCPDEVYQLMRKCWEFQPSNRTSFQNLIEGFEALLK
Sequence of TYK2 (P29597 whole entry): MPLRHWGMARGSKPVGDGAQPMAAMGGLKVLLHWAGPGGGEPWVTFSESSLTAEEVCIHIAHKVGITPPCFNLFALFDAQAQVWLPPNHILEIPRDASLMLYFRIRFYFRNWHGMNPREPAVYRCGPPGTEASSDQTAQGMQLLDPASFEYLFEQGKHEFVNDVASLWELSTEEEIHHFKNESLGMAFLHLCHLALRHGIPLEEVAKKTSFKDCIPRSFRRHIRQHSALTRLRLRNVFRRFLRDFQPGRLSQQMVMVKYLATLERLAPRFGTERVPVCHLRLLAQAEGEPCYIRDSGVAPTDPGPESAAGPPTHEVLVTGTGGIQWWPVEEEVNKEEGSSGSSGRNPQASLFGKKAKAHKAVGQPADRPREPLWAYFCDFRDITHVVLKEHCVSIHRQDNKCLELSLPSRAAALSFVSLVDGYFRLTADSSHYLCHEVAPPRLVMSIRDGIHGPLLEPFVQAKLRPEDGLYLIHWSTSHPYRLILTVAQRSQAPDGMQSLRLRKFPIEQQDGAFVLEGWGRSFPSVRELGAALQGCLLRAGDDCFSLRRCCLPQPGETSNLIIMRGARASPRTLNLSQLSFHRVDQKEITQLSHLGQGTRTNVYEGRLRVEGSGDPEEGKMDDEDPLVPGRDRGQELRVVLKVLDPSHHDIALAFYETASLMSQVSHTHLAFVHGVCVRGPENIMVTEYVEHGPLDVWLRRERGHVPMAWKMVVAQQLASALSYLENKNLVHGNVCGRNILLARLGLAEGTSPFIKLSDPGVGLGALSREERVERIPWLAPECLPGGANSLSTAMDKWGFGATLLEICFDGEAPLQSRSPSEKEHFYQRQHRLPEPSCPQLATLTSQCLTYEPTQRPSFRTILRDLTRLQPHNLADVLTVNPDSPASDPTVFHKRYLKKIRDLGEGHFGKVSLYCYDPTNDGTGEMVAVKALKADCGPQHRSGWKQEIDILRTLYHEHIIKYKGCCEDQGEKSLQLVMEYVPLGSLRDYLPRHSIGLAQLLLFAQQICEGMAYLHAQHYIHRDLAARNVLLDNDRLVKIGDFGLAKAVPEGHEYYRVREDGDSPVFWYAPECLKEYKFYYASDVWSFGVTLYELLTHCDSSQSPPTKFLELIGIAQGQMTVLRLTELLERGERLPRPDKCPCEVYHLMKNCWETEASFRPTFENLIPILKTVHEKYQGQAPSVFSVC
T3 sequence (Q9UM73 19-1620): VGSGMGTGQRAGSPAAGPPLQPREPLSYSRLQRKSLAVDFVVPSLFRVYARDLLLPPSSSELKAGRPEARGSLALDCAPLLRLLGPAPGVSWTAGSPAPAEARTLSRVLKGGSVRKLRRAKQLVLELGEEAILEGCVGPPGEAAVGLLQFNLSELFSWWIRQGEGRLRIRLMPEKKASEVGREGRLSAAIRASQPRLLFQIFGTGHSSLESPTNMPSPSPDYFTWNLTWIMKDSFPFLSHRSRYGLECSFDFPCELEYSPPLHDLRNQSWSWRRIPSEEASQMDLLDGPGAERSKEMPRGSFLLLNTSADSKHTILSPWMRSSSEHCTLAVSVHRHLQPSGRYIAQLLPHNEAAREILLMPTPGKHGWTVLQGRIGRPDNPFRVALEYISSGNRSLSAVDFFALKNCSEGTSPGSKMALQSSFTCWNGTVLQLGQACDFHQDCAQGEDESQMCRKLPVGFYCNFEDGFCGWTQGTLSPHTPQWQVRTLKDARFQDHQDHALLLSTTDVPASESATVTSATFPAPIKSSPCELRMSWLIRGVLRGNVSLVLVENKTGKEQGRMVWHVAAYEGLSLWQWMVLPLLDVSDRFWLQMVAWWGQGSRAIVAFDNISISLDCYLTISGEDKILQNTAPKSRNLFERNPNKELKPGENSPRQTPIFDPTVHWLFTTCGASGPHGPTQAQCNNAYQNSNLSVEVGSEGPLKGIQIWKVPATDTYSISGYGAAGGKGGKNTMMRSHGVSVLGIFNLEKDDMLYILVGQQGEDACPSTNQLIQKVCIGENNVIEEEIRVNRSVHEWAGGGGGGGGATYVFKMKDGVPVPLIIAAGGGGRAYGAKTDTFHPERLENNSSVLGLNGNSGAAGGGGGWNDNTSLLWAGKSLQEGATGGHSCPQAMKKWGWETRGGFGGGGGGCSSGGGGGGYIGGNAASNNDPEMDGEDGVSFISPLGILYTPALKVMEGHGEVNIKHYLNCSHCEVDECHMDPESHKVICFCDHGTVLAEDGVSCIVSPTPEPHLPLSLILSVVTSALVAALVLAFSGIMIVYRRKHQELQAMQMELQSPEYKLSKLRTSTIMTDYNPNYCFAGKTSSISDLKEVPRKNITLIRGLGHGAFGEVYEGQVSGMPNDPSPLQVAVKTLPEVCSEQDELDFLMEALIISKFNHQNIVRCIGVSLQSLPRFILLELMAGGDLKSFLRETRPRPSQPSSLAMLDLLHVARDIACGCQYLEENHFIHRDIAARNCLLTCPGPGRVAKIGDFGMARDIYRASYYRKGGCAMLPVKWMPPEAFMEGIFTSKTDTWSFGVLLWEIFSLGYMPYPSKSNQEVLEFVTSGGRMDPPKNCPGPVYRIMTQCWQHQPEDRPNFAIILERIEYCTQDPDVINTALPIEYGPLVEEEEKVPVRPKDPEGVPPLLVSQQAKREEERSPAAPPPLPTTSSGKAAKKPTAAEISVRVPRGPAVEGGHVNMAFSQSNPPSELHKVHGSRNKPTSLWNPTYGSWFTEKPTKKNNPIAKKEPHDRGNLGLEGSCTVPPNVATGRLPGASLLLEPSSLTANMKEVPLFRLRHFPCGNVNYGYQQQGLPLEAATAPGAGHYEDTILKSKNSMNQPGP
T4 sequence (O60674 828-1132): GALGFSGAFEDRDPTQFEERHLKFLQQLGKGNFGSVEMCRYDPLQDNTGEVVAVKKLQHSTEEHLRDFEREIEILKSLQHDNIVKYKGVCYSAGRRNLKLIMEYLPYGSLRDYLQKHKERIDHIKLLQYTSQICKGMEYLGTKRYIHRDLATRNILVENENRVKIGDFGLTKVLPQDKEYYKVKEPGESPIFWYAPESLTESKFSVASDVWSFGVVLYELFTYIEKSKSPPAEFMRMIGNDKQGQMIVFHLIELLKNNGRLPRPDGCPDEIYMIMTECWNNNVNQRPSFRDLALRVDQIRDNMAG

`Clc1cnc2nc1Nc1cc(cc(CN3CCNCC3)c1)CCc1cccc(c1)N2` [Example B191, 6-Chloro-11-(piperazin-1-ylmethyl)-2,4,8,22-tetraazatetracyclo[14.3.1.1(3,7).1(9,13)]docosa-1(20),3(22),4,6,9(21),10,12,16,18-nonaene dihydrochloride]: the IC50 (commonly the concentration at which inhibition is half-maximal) stood at 378 nM on TYK2 (Table B1); 205 nM in assay [1] (Table B1); 93 nM in assay [2] (Table B1); 1530 nM in assay [3] (setting [5]); 27 nM in assay [4] (Table B1).
For the compound `O=C(Nc1ccc(OC(F)(F)F)cc1)Nc1ccc2cc1CCc1cccc(c1)Nc1ncc(Cl)c(n1)N2` [Example B132, N-[6-Chloro-2,4,8,22-tetraazatetracyclo[14.3.1.1(3,7).1(9,13)]docosa-1(20), 3(22),4,6,9(21),10,12,16,18-nonaen-12-yl]-N′-[4-(trifluoromethoxy)phenyl]urea trifluoroacetate], the 50% inhibitory concentration (IC50) turned out to be 96 nM against TYK2 (Table B1), 198 nM in assay [1] (Table B1), 11 nM in assay [2] (Table B1) and 27 nM in assay [4] (Table B1). In addition, in assay [3] (setting [6]), the “ALK % of inhibition at a concentration of 500 nM or 1 mM” value (“ALK % of inhibition” for short) amounted to 5%.
For `O=C(CC1CCN(C(=O)Nc2ccccc2)C1)Nc1ccc2cc1CCc1cncc(c1)Nc1ncc(Cl)c(n1)N2` (stereo not drawn) [Example A92, 3-(2-{[6-Chloro-2,4,8,18,22-pentaazatetracyclo[14.3.1.1(3,7).1(9,13)]docosa-1(20),3(22),4,6,9(21),10,12,16,18-nonaen-12-yl]amino}-2-oxoethyl)-N-phenylpyrrolidine-1-carboxamide bis(trifluoroacetate)], the IC50 against TYK2 came to 21 nM; in assay [1] (setting [7]) it was 79 nM; in assay [2] (setting [8]) it was 1.4 nM; in assay [4] (setting [10]), 6.1 nM. In addition, the “ALK % of inhibition” value in assay [3] (setting [9]) came out at 61%.
On to `O=C(Nc1ncc(Cl)s1)Nc1ccc2cc1CCc1cccc(c1)Nc1ncc(Cl)c(n1)N2` [Example B252, N-[6-Chloro-2,4,8,22-tetraazatetracyclo[14.3.1.1(3,7).1(9,13)]docosa-1(20),3(22),4,6,9(21),10,12,16,18-nonaen-12-yl]-N′-(5-chloro-1,3-thiazol-2-yl)urea trifluoroacetate], for which the half-inhibitory concentration (IC50) worked out at 62 nM on TYK2 (Table B1), 119 nM in assay [1] (Table B1), 13 nM in assay [2] (Table B1) and 26 nM in assay [4] (Table B1). In addition, in assay [3] (setting [6]), the “ALK % of inhibition” value is recorded as 20%.
Turning to `O=C(Cc1ccccc1)Nc1ccc2cc1CCc1cccc(c1)Nc1ncc(Cl)c(n1)N2` [Example B32, N-[6-Chloro-2,4,8,22-tetraazatetracyclo[14.3.1.1(3,7).1(9,13)]docosa-1(20), 3(22),4,6,9(21),10,12,16,18-nonaen-12-yl]-2-phenylacetamide trifluoroacetate], the IC50 at TYK2 (Table B1) was found to be 2.7 nM; in assay [1] (Table B1) it was 5.5 nM; in assay [2] (Table B1), 2.8 nM; in assay [3] (setting [5]) it was 940 nM; in assay [4] (Table B1), 1.6 nM.
For the compound `O=C(CC1CCN(C(=O)c2nc[nH]n2)CC1)Nc1ccc2cc1CCc1cncc(c1)Nc1ncc(Cl)c(n1)N2` [Example A136, N-[6-Chloro-2,4,8,18,22-pentaazatetracyclo[14.3.1.1(3,7).1(9,13)]docosa-1(20),3(22),4,6,9(21),10,12,16,18-nonaen-12-yl]-2-[1-(1H-1,2,4-triazol-3-ylcarbonyl)piperidin-4-yl]acetamide bis(trifluoroacetate)], the IC50 at TYK2 was determined as 2.1 nM; in assay [1] (setting [7]), 57 nM; in assay [2] (setting [8]), 0.4 nM; in assay [4] (setting [10]), 2.4 nM. The “ALK % of inhibition” value in assay [3] (setting [9]) came out at 38%.
In the case of `CC(C)(C)OC(=O)N1CC[C@H](NC(=O)Nc2ccc3cc2CCc2cccc(c2)Nc2ncc(Cl)c(n2)N3)C1` [Example B166, tert-Butyl (3S)-3-[({[6-chloro-2,4,8,22-tetraazatetracyclo[14.3.1.1(3,7).1(9,13)]docosa-1(20),3(22),4,6,9(21),10,12,16,18-nonaen-12-yl]amino}carbonyl)amino]pyrrolidine-1-carboxylate], the IC50 at TYK2 (Table B1) was 17 nM; in assay [1] (Table B1) it was 39 nM; in assay [2] (Table B1), 3.6 nM; in assay [4] (Table B1), 7.4 nM. In addition, the “ALK % of inhibition” value in assay [3] (setting [6]) is 15%.
For `O=C(CC1CCN(C(=O)c2ccc(F)cc2F)CC1)Nc1ccc2cc1CCc1cccc(c1)Nc1ncc(Cl)c(n1)N2` [Example A204, N-[6-Chloro-2,4,8,22-tetraazatetracyclo[14.3.1.1(3,7).1(9,13)]docosa-1(20),3(22),4,6,9(21),10,12,16,18-nonaen-12-yl]-2-[1-(2,4-difluorobenzoyl)piperidin-4-yl]acetamide trifluoroacetate], the IC50 against TYK2 was greater than 200 nM; in assay [1] (setting [7]), greater than 200 nM; in assay [2] (setting [8]), 20 nM; in assay [4] (setting [10]) it was 100 nM. The “ALK % of inhibition” value in assay [3] (setting [9]) was found to be 28%.
For the compound `Cc1cc(C(=O)N2CCN(CC(=O)Nc3ccc4cc3CCc3cccc(c3)Nc3ncc(Cl)c(n3)N4)CC2)no1` [Example A123, N-[6-Chloro-2,4,8,22-tetraazatetracyclo[14.3.1.1(3,7).1(9,13)]docosa-1(20),3(22),4,6,9(21),10,12,16,18-nonaen-12-yl]-2-{4-[(5-methylisoxazol-3-yl)carbonyl]piperazin-1-yl}acetamide bis(trifluoroacetate)], the IC50 against TYK2 stood at 8.3 nM; in assay [1] (setting [7]), 68 nM; in assay [2] (setting [8]), 7.2 nM; in assay [4] (setting [10]) it was 9.6 nM. In assay [3] (setting [9]), the “ALK % of inhibition” value is 26%.
As to `CN1CC[C@H](NC(=O)Nc2ccc3cc2CCc2cccc(c2)Nc2ncc(Cl)c(n2)N3)C1` [Example B261, N-[6-Chloro-2,4,8,22-tetraazatetracyclo[14.3.1.1(3,7).1(9,13)]docosa-1(20),3(22),4,6,9(21),10,12,16,18-nonaen-12-yl]-N′-[(3S)-1-methylpyrrolidin-3-yl]urea bis(trifluoroacetate)], the IC50 at TYK2 (Table B1) was determined as 81 nM; in assay [1] (Table B1), 81 nM; in assay [2] (Table B1) it was 9.5 nM; in assay [4] (Table B1), 29 nM. Also, in assay [3] (setting [6]), the “ALK % of inhibition” value is 24%.
For `Clc1cnc2nc1Nc1cccc(c1)CCNc1cccc(c1)N2` [Example D78, 6-Chloro-2,4,8,16,23-pentaazatetracyclo[15.3.1.1(3,7).1(9,13)]tricosa-1(21), 3(23),4,6,9(22),10,12,17,19-nonaene bis(trifluoroacetate)], the IC50 came out at 19 nM against TYK2 (Table D1); 30 nM in assay [1] (Table D1); 30 nM in assay [2] (Table D1); 791 nM in assay [3] (Table D1, 90 μM ATP); 10 nM in assay [4] (Table D1).
Consider `O=C(CC1CCN(S(=O)(=O)c2ccco2)CC1)Nc1ccc2cc1CCc1cncc(c1)Nc1ncc(Cl)c(n1)N2` [Example A201, N-[6-Chloro-2,4,8,18,22-pentaazatetracyclo[14.3.1.1(3,7).1(9,13)]docosa-1(20),3(22),4,6,9(21),10,12,16,18-nonaen-12-yl]-2-[1-(2-furylsulfonyl)piperidin-4-yl]acetamide bis(trifluoroacetate)], for which the IC50 at TYK2 is 150 nM; in assay [1] (setting [7]), greater than 200 nM; in assay [2] (setting [8]) it was 9.3 nM; in assay [4] (setting [10]), 100 nM. Moreover, in assay [3] (setting [9]), the “ALK % of inhibition” value is 31%.
On to `N#Cc1c(Cl)cncc1N1CCC(CC(=O)Nc2ccc3cc2CCc2cncc(c2)Nc2ncc(Cl)c(n2)N3)CC1` [Example A240, 2-[1-(5-Chloro-4-cyanopyridin-3-yl)piperidin-4-yl]-N-[6-chloro-2,4,8,18,22-pentaazatetracyclo[14.3.1.1(3,7).1(9,13)]docosa-1(20),3(22),4,6,9(21),10,12,16,18-nonaen-12-yl]acetamide tris(trifluoroacetate)], for which the IC50 on TYK2 was 244 nM; in assay [1] (setting [7]) it was greater than 400 nM; in assay [2] (setting [8]) it was 1.5 nM; in assay [4] (setting [10]) it was 80 nM. Also, the “ALK % of inhibition” value in assay [3] (setting [9]) came out at 29%.
In the case of `CCc1cccc(NC(=O)Nc2ccc3cc2CCc2cccc(c2)Nc2ncc(Cl)c(n2)N3)c1` [Example B99, N-[6-Chloro-2,4,8,22-tetraazatetracyclo[14.3.1.1(3,7).1(9,13)]docosa-1(20), 3(22),4,6,9(21),10,12,16,18-nonaen-12-yl]-N′-(3-ethylphenyl)urea trifluoroacetate], the IC50 against TYK2 (Table B1) is 33 nM; in assay [1] (Table B1) it was 151 nM; in assay [2] (Table B1) it was 7 nM; in assay [4] (Table B1), 20 nM. Besides, the “ALK % of inhibition” value in assay [3] (setting [6]) turned out to be 37%.
In the case of `O=C(Nc1ccc2cc1CCc1cccc(c1)Nc1ncc(Cl)c(n1)N2)C1CCNCC1` [Example A28, N-[6-Chloro-2,4,8,22-tetraazatetracyclo[14.3.1.1(3,7).1(9,13)]docosa-1(20), 3(22),4,6,9(21),10,12,16,18-nonaen-12-yl]piperidine-4-carboxamide bis(trifluoroacetate)], the IC50 was 175 nM against TYK2, 99 nM in assay [1] (setting [7]), 56 nM in assay [2] (setting [8]) and 61 nM in assay [4] (setting [10]). Besides, the “ALK % of inhibition” value in assay [3] (setting [9]) was 30%.

(Values after US8871753B2, “Macrocyclic compounds and their use as kinase inhibitors” (Incyte Corporation, priority 2008, dated 2014).)
